The nature of data set [1]: Stability study of the crystal form VI of compound A (high temperature, high humidity, light). It counts as physicochemical.
Data set [2] is described as follows: Dynamic moisture adsorption and desorption analysis (DVS). It counts as physicochemical. Particulars: for crystal form after DVS test (XRPD): before and after DVS test; for hygroscopicity (DVS): moisture range 0% to 90%. As to the method:
The instrument model used for dynamic moisture adsorption and desorption analysis was IGA Sorp (Hidentity Isochema). The samples were measured in a gradient mode with a moisture range of 0% to 90%, wherein the humidity increment of each gradient was 10%.

Consider `O=C(Nc1ccc(OC(F)(F)Cl)cc1)c1cnc(N2CC[C@@H](F)C2)c(-c2cnccn2)c1` [the crystal form VI of compound A], for which the Appearance result in data set [1] (0 day) is listed as “Off-white powder”; in data set [1] (25° C./92.5%RH, 10 days) it was “Off-white powder”; in data set [1] (25° C./92.5%RH, 30 days), “Off-white powder”; in data set [1] (40° C./75%RH, 10 days) it was “Off-white powder”; in data set [1] (40° C./75%RH, 30 days), “Off-white powder”; in data set [1] (60° C., 10 days), “Off-white powder”. Moreover, the Appearance entry in data set [1] (60° C., 30 days) was “Off-white powder”; in data set [1] (Light, 10 days), “Off-white powder”. Moreover, the Content in data set [1] (0 day) was 99.40%; in data set [1] (25° C./92.5%RH, 10 days), 98.40%; in data set [1] (25° C./92.5%RH, 30 days), 98.80%; in data set [1] (40° C./75%RH, 10 days), 98.40%; in data set [1] (40° C./75%RH, 30 days), 101.40%; in data set [1] (60° C., 10 days) it was 99.90%. Further, the Content in data set [1] (60° C., 30 days) is 96.90%; in data set [1] (Light, 10 days) it was 99.70%. Moreover, the Crystal form entry is given as “The crystal form VI” in data set [1] (0 day); “The crystal form VI” in data set [1] (25° C./92.5%RH, 10 days); “The crystal form VI” in data set [1] (25° C./92.5%RH, 30 days); “The crystal form VI” in data set [1] (40° C./75%RH, 10 days); “The crystal form VI” in data set [1] (40° C./75%RH, 30 days); “The crystal form VI” in data set [1] (60° C., 10 days). Moreover, the Crystal form entry in data set [1] (60° C., 30 days) is listed as “The crystal form VI”; in data set [1] (Light, 10 days), “The crystal form VI”. Moreover, the Impurity content turned out to be 0.87% in data set [1] (0 day); 0.80% in data set [1] (25° C./92.5%RH, 10 days); 0.85% in data set [1] (25° C./92.5%RH, 30 days); 0.79% in data set [1] (40° C./75%RH, 10 days); 0.80% in data set [1] (40° C./75%RH, 30 days); 0.81% in data set [1] (60° C., 10 days). In addition, the Impurity content in data set [1] (60° C., 30 days) is on record as 0.84%; in data set [1] (Light, 10 days), 0.85%. Moreover, the Hygroscopic weight gain in data set [1] (25° C./92.5%RH, 10 days) amounted to 0.34%; in data set [1] (25° C./92.5%RH, 30 days) it was 2.72%; in data set [1] (40° C./75%RH, 10 days) it was 1.26%; in data set [1] (40° C./75%RH, 30 days), 1.26%.

Consider `O=C(Nc1ccc(OC(F)(F)Cl)cc1)c1cnc(N2CC[C@@H](F)C2)c(-c2cnccn2)c1.O=S(=O)(O)c1ccccc1` [(R)-N-(4-(chlorodifluoromethoxy)phenyl)-6-(3-fluoropyrrolidin-1-yl)-5-(pyrazin-2-yl)nicotinamide benzenesulfonate], for which the results for the water absorption entry in data set [2] (0-60%RH) and in data set [2] (0-90%RH) were “about 0.4%” and “about 1.5%”, respectively. The “crystal form after DVS test (XRPD)” value in data set [2] is listed as “not changed”. Further, the “hygroscopicity (DVS)” value in data set [2] is reported as “slightly hygroscopic”.

`CS(=O)(=O)O.O=C(Nc1ccc(OC(F)(F)Cl)cc1)c1cnc(N2CC[C@@H](F)C2)c(-c2cnccn2)c1` [crystal form I of compound A mesylate, (R)-N-(4-(chlorodifluoromethoxy)phenyl)-6-(3-fluoropyrrolidin-1-yl)-5-(pyrazin-2-yl)nicotinamide mesylate]: the water absorption entry in data set [2] (0-80%RH) is on record as “about 3.6%”; in data set [2] (0-90%RH), “about 40.3%”. The “crystal form after DVS test (XRPD)” value in data set [2] is “not changed”. In addition, the “hygroscopicity (DVS)” value in data set [2] is “hygroscopic”.

Turning to `Br.O=C(Nc1ccc(OC(F)(F)Cl)cc1)c1cnc(N2CC[C@@H](F)C2)c(-c2cnccn2)c1` [(R)-N-(4-(chlorodifluoromethoxy)phenyl)-6-(3-fluoropyrrolidin-1-yl)-5-(pyrazin-2-yl)nicotinamide hydrobromide], the water absorption result in data set [2] (0-80%RH) is “about 0.67%”. For the same compound, in data set [2], the “crystal form after DVS test (XRPD)” value is listed as “not changed” and the “hygroscopicity (DVS)” value is “slightly hygroscopic”.

As for `Cl.O=C(Nc1ccc(OC(F)(F)Cl)cc1)c1cnc(N2CC[C@@H](F)C2)c(-c2cnccn2)c1` [(R)-N-(4-(chlorodifluoromethoxy)phenyl)-6-(3-fluoropyrrolidin-1-yl)-5-(pyrazin-2-yl)nicotinamide hydrochloride], the water absorption entry in data set [2] (0-40%RH (relative humidity)) is “about 0.4%”. In data set [2] (0-90%RH), the water absorption result is recorded as “about 2.8%”. For the same compound, in data set [2], the “crystal form after DVS test (XRPD)” value is on record as “not changed” and the “hygroscopicity (DVS)” value is on record as “slightly hygroscopic”.

The record behind these values is patent publication US20230322717A1, “SOLID FORM OF PYRAZINE SUBSTITUTED NICOTINAMIDE, AND PREPARATION AND USE THEREOF” (Shenzhen TargetRx, Inc., priority 2020, published 2023).
